Experimental data from patent US20130053434A1, “IRREVERSIBLE INHIBITORS USEFUL FOR THE TREATMENT OF KINASE-RELATED PATHOLOGIES” (CENTRE NATIONAL DE LA RECHERCHE SCIENTIFIQUE, priority 2009, published 2013).

Tests used:
MKNK2 = target: T1, MKNK2 (Homo sapiens, UniProt Q9HBH9); test: panel of 402 kinases: MKNK2; format: binding; details: read-out: residual activity relatively to control
T1 construct: purchased KinomeScan
Protocol: (§1) Two representative library members (1afh and 1bgi) were then evaluated in a larger panel of kinases (402) using the technology described by Lockhart et al. (M. A. Fabian, et al., Nat. Biotechnol. 2005, 23, 329-336; M. W. Karaman, et al., Nat. Biotechnol. 2008, 26, 127-132). In this panel, 31 kinases out of the 46 kinases bioinformatically identified by Santi and coworkers are present along with numerous other kinases bearing a cysteine residue at other positions within the ATP-binding pocket (J. Zhang, P. L. Yang, N. S. Gray, Nat. Rev. Cancer 2009, 9, 28-39).
(§2) The selectivity profile was measure using the KinomeScan™ technology (http://www.kinomescan.com/) based on active-site dependent competition binding assay (Karaman, M. W., et al. (2008) Nat. Biotechnol. 26, 127-32; Fabian, M. A., et al. (2005) Nat. Biotechnol. 23, 329-36). Compounds 3 and 5 were profiled against a panel of 50 kinases including 42 kinases from the group of 48 kinases predicted by Santi et al. (Schirmer, A., et al. (2006) Proc. Natl. Acad. Sci. USA 103, 4234-9) to be targeted by hypothemycin and 5 mutants of FLT3 as well as 3 mutants of KIT. Both compounds were assayed at 1 μM. The results are expressed as a percentage of signal between a negative (DMSO) and positive (know binder) control [(test compound−positive control)/([…])×100].

PDGFRα = target: T2, PDGFRα (Homo sapiens, UniProt P16234); test: panel of 402 kinases: PDGFRα; format: binding; details: read-out: residual activity relatively to control
T2 construct: purchased KinomeScan
Protocol: as §1, §2

CDKL5 = target: T3, CDKL5 (Homo sapiens, UniProt O76039); test: panel of 402 kinases: CDKL5; format: binding; details: 1 μM
T3 construct: purchased KinomeScan
Protocol: as §1, §2

GAK = target: T4, GAK (Homo sapiens, UniProt O14976); test: panel of 402 kinases: GAK; format: binding; details: read-out: residual activity relatively to control
T4 construct: purchased KinomeScan
Protocol: as §1, §2

Flt3 D835Y = Flt3 D835Y (Homo sapiens, UniProt P36888, D835Y); test: kinase mutants: Flt3 D835Y; format: binding; details: gain of function mutation
Protocol: as §1
(§3) The two compounds were also evaluated against a series of mutations of Flt3 and KIT. It is known that several mutation in Flt3 lead to a gain of function or constitutive activity.

MEK1 = MEK1 (Homo sapiens, UniProt Q02750); test: panel of 402 kinases: MEK1; format: binding; details: read-out: residual activity relatively to control
Protocol: as §1, §2

MKNK1 = target: T5, MKNK1 (Homo sapiens, UniProt Q9BUB5); test: panel of 402 kinases: MKNK1; format: binding; details: read-out: residual activity relatively to control
T5 construct: purchased KinomeScan
Protocol: as §1, §2

KIT V559D, V654A = KIT V559D, V654A (Homo sapiens, UniProt P10721, V559D/V654A); test: kinase mutants: KIT V559D, V654A; format: binding; details: dual mutation conferring resistance to imatinib
Protocol: as §1, §3

KIT = KIT (Homo sapiens, UniProt P10721); test: panel of 402 kinases: KIT; format: binding; details: read-out: residual activity relatively to control
Protocol: as §1, §2

PRP4 = target: T6, PRP4 (Homo sapiens, UniProt Q13523); test: panel of 402 kinases: PRP4; format: binding; details: 1 μM
T6 construct: purchased KinomeScan
Protocol: as §1, §2

MEK2 = target: T7, MEK2 (Homo sapiens, UniProt P36507); test: panel of 402 kinases: MEK2; format: binding; details: read-out: residual activity relatively to control
T7 construct: purchased KinomeScan
Protocol: as §1, §2

KIT D816V = KIT D816V (Homo sapiens, UniProt P10721, D816V); test: kinase mutants: KIT D816V; format: binding; details: gain of function mutation
Protocol: as §1, §3

KIT L576P = KIT L576P (Homo sapiens, UniProt P10721, L576P); test: kinase mutants: KIT L576P; format: binding; details: gain of function mutation
Protocol: as §1, §3

Flt3 K663Q = Flt3 K663Q (Homo sapiens, UniProt P36888, K663Q); test: kinase mutants: Flt3 K663Q; format: binding; details: gain of function mutation
Protocol: as §1, §3

NLK = target: T8, NLK (Homo sapiens, UniProt Q9UBE8); test: panel of 402 kinases: NLK; format: binding; details: 1 μM
T8 construct: purchased KinomeScan
Protocol: as §1, §2

ERK1 = target: T9, ERK1 (Homo sapiens, UniProt P27361); test: panel of 402 kinases: ERK1; format: binding; details: 1 μM
T9 construct: purchased KinomeScan
Protocol: as §1, §2

panel of kinases (402) = test: larger panel of kinases (402), competition binding, whole panel; details: 1 μM; for number of kinases out of 31 with more than 50% residual activity: 31 of the 46 predicted kinases
Protocol: as §1, §2

Flt3 N841L = test: kinase mutants: Flt3 N841L; format: binding; details: gain of function mutation
Protocol: as §1, §3

NIK = target: T10, NIK (Homo sapiens, UniProt Q99558); test: panel of 402 kinases: NIK; format: binding; details: 1 μM
T10 construct: purchased KinomeScan
Protocol: as §1, §2

Flt1 = target: T11, Flt1 (Homo sapiens, UniProt P17948); test: panel of 402 kinases: Flt1; format: binding
T11 construct: purchased KinomeScan
Protocol: as §1, §2

KIT V559D, T670I = KIT V559D, T670I (Homo sapiens, UniProt P10721, T670I/V559D); test: kinase mutants: KIT V559D, T670I; format: binding; details: dual mutation conferring resistance to imatinib
Protocol: as §1, §3

Flt3 = target: T12, Flt3 (Homo sapiens, UniProt P36888); test: panel of 402 kinases: Flt3; format: binding; details: read-out: residual activity relatively to control
T12 construct: purchased KinomeScan
Protocol: as §1, §2

PDGFRβ = target: T13, PDGFRβ (Homo sapiens, UniProt P09619); test: panel of 402 kinases: PDGFRβ; format: binding
T13 construct: purchased KinomeScan
Protocol: as §1, §2

TGFR2 = target: T14, TGFR2 (Homo sapiens, UniProt P37173); test: panel of 402 kinases: TGFR2; format: binding; details: read-out: residual activity relatively to control
T14 construct: purchased KinomeScan
Protocol: as §1, §2

GSK3β = GSK3β (Homo sapiens, UniProt P49841); test: panel of 402 kinases: GSK3β; format: binding; details: 1 μM
Protocol: as §1, §2

KIT V559D = KIT V559D (Homo sapiens, UniProt P10721, V559D); test: kinase mutants: KIT V559D; format: binding; details: gain of function mutation
Protocol: as §1, §3

TAK1 = target: T15, TAK1 (Homo sapiens, UniProt O43318); test: panel of 402 kinases: TAK1; format: binding; details: read-out: residual activity relatively to control
T15 construct: purchased KinomeScan
Protocol: as §1, §2

MEK4 = target: T16, MEK4 (Homo sapiens, UniProt P45985); test: panel of 402 kinases: MEK4; format: binding; details: read-out: residual activity relatively to control
T16 construct: purchased KinomeScan
Protocol: as §1, §2

[1] = in vivo; cited from earlier work
[2] = test system: orthotopically implanted RENCA-LN cells; test: orthotopic murine renal cell carcinoma (RENCA) model, in vivo efficacy; details: untreated group had two animals; groups of 12
Protocol: RENCA-LN cells were obtained and cultured as described above. Sixty female BALB/c mice of 5 to 6 weeks were orthotopically implanted RENCA-LN cells into the left kidney (4×10^5 cells in 25 μl aliquots into the subcapsular space through a flank incision, Day 0). The mice were randomly divided into 5 groups of 12 mice each. On day 2, therapy was initiated. Animals in the vehicle control group (group 1) received 10 ml/kg Vehicle (PBS w/o Ca/Mg, 10% DMSO, 40% PEG-300) i.p. once daily until day 19. Animals of positive control group (group 2) received 40 mg/kg Sunitinib (Sutent®) p.o. once daily until day 20. Animals of treatment group 3 and 4 received 20 mg/kg of 3 once daily and every other day respectively (i.p.). Animals of treatment group 5 received 20 mg/kg of 5 once daily (i.p.). Due to partial weight loss, therapy in Groups 3 and 5 was suspended on days 11 and 12 and stopped on day 17. On day 20, the study was terminated and a necropsy performed. All animals were weighted, anaesthetised by isoflurane and killed by exsanguination. Two animals in group 1 were found dead on day 19 and 1 animal in group 3 and 5 on day 11 and 9 respectively. At necropsy, primary tumor weight and volume, lung weight and number of lung metastases were determined. Primary tumor tissues were collected and divided into two parts. One part of each tumor was snap-frozen in liquid nitrogen and stored at −80° C. whereas the other part was analyzed via ex vivo bioluminescence imaging. During the course of the study, the growth of the orthotopically implanted RENCA tumors was monitored on days 7, 14 and 19 using in vivo bioluminescence imaging. For this purpose, luciferin was injected intraperitoneally (i.p.) into the mice and light emission was measured post injection (10 min) using a NightOWL LB 981 bioluminescence imaging system (Berthold Technologies, Germany). The migration of RENCA tumor cells into the lung (metastasis) was analyzed post necropsy by counting nodules and using the luciferase assay. For this purpose, lungs were collected, homogenized, and assayed for luciferase activity using the kit from Promega (E1501) according to the manufacturer's instructions. Protein concentrations were determined using a Bradford assay and used to normalize luciferase activities (except for the primary tumor). A histological examination of the tumor vasculature was performed. For this purpose, cryosections of primary tumor tissues (thickness=5-10 μm) from the snap-frozen portion of the organ and blood vessels were visualized by immunohistochemical staining for CD 31 (PECAM-1; PharMingen, San Diego, Calif.). […] Statistical analysis of efficacy data was done using the Mann Whitney test.

[3] = read-out: residual activity relatively to control

KIT D816V, sequence (P10721 26-976 D816V): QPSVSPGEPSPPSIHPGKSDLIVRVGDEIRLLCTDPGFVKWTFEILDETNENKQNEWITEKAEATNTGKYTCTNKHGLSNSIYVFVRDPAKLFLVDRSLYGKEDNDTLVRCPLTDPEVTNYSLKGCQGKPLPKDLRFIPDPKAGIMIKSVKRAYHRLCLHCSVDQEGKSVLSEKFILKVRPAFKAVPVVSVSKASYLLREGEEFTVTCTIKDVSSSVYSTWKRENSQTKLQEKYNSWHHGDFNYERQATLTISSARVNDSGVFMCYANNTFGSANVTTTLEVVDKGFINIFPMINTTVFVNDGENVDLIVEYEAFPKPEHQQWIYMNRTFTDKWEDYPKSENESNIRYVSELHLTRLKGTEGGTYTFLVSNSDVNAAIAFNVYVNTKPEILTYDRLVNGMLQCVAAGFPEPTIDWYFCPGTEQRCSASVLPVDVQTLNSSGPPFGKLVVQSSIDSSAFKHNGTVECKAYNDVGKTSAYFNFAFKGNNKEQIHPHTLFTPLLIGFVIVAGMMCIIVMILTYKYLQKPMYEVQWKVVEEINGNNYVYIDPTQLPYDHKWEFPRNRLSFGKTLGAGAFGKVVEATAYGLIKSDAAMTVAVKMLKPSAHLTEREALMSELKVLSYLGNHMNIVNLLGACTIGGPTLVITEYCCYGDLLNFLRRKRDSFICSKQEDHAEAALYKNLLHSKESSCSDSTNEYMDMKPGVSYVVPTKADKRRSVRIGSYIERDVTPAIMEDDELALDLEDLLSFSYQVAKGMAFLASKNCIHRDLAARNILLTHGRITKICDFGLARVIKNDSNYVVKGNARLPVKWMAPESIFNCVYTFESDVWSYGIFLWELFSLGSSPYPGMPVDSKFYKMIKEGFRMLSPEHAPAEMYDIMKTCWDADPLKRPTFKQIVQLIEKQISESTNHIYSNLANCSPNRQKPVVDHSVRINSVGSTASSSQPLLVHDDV
T11 sequence (P17948 27-1338): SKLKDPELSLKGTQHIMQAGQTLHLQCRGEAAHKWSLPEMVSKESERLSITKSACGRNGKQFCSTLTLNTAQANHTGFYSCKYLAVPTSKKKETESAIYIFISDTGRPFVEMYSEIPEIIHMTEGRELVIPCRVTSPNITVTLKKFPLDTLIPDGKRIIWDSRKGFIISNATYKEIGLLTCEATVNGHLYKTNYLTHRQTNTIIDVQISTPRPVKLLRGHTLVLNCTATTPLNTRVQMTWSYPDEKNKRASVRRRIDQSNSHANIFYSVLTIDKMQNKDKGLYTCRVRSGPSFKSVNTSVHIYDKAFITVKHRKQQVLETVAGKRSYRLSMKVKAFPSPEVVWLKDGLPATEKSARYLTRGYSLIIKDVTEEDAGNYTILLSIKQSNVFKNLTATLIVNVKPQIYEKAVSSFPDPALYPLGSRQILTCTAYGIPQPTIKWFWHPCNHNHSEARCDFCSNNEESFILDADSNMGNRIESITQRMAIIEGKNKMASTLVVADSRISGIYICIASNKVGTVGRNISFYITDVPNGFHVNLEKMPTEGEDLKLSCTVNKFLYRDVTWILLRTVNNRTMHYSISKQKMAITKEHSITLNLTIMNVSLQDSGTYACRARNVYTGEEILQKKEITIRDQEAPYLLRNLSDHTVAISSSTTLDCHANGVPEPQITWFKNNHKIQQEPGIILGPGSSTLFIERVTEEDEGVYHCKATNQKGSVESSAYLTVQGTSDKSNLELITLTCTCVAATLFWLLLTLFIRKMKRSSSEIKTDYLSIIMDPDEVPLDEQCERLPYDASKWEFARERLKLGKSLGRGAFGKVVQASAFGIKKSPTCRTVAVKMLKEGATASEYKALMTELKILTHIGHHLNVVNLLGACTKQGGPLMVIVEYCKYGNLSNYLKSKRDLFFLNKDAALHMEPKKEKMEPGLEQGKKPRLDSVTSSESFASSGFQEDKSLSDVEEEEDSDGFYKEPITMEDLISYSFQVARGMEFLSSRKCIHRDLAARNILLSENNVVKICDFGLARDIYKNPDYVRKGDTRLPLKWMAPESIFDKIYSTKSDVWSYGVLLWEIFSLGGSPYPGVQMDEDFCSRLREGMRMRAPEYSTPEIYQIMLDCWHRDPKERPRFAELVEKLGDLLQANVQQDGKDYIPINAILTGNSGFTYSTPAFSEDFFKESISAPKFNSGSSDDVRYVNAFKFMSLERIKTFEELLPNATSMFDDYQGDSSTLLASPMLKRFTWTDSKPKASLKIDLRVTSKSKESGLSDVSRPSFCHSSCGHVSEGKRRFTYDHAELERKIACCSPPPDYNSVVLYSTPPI
KIT V559D, sequence (P10721 26-976 V559D): as the sequence (P10721 26-976 D816V) above, with V534D, V791D counted along it
KIT V559D, V654A, sequence (P10721 26-976 V559D/V654A): as the sequence (P10721 26-976 D816V) above, with V534D, V629A, V791D counted along it
T13 sequence (P09619 33-1106): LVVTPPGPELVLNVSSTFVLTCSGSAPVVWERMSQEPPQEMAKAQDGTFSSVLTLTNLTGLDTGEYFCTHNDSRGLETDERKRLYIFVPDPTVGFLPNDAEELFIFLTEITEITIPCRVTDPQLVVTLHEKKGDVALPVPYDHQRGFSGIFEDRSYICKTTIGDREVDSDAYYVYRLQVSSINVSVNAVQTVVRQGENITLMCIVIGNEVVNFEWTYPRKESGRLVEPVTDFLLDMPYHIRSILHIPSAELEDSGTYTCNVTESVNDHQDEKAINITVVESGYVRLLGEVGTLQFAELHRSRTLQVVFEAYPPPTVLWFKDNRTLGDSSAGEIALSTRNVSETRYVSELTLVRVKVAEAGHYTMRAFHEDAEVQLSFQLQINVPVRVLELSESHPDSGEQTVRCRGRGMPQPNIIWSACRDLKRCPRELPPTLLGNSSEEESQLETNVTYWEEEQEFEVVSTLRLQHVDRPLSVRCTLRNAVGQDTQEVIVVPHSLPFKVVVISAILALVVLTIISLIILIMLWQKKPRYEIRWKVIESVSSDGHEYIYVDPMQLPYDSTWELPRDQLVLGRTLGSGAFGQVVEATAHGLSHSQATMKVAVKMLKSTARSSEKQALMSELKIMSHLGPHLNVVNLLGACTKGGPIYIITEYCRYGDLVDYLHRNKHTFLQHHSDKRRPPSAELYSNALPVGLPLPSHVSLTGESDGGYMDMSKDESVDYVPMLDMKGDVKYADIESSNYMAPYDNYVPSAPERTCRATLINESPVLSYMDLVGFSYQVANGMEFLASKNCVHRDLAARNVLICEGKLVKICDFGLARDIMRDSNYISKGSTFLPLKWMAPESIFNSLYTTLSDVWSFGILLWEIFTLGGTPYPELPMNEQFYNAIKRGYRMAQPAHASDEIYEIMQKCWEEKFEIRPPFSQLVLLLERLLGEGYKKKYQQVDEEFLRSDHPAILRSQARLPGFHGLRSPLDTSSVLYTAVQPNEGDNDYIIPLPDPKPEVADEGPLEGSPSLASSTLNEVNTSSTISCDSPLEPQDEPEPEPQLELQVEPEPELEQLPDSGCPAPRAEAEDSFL
KIT L576P, sequence (P10721 26-976 L576P): as the sequence (P10721 26-976 D816V) above, with L551P, V791D counted along it
KIT V559D, T670I, sequence (P10721 26-976 V559D/T670I): as the sequence (P10721 26-976 D816V) above, with V534D, T645I, V791D counted along it
GSK3β, sequence (P49841 whole entry, species assumed): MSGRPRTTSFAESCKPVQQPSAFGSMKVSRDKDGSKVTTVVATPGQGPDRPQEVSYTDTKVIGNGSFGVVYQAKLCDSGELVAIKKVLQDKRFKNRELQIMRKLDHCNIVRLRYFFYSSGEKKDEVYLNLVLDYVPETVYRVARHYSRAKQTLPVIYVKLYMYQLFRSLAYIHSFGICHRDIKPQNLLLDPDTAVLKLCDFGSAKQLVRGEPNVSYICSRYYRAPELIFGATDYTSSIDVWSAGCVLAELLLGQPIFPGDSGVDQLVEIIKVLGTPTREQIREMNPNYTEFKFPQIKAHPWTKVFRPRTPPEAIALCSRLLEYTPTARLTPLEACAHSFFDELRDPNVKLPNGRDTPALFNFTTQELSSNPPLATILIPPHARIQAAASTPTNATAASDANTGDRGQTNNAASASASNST
MEK1, sequence (Q02750 whole entry): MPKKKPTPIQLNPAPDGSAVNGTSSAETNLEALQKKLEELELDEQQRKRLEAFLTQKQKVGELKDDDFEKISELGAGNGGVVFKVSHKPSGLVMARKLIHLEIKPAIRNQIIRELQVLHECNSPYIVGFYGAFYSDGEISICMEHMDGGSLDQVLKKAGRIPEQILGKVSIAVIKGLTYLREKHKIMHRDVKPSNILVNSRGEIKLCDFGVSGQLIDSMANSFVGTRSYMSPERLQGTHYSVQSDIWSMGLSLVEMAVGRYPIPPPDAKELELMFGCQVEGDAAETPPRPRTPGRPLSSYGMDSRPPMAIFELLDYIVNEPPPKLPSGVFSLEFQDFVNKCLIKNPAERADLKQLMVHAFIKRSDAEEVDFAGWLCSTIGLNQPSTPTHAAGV
T14 sequence (P37173 23-567): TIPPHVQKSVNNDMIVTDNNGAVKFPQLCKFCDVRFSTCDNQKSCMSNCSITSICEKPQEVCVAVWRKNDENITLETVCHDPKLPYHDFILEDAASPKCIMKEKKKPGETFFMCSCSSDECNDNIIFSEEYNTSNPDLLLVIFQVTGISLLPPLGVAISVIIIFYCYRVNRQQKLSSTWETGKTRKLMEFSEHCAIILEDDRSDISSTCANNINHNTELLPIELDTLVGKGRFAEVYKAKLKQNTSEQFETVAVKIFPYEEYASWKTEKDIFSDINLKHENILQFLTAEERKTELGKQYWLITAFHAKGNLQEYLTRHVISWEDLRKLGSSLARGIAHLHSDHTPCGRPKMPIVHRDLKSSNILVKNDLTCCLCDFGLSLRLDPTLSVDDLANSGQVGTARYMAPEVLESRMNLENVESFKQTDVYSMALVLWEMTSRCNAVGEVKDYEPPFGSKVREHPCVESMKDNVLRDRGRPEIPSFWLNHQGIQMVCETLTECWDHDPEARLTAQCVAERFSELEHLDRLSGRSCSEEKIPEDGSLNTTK
KIT, sequence (P10721 26-976): as the sequence (P10721 26-976 D816V) above, with V791D counted along it

Compound: C[C@H]1C/C=C\C(=O)[C@@H](O)[C@@H](O)CCCc2cc(O)cc(O)c2C(=O)O1 [1afh]
- remaining activity at 1 µM (MKNK2): < 10%
- remaining activity at 1 µM (PDGFRα): < 10%
- inhibition (CDKL5): not inhibited
- remaining activity at 1 µM (GAK): < 10%
- activity against mutant compared with wild type (Flt3 D835Y): more active than against the wild type
- remaining activity at 1 µM (MEK1): < 10%
- remaining activity at 1 µM (MKNK1): < 10%
- activity against dual mutation (KIT V559D, V654A): not active
- remaining activity at 1 µM (KIT): < 10%
- inhibition (PRP4): not inhibited
- remaining activity at 1 µM (MEK2): < 10%
- activity against mutant (KIT D816V): retained their activity
- activity against mutant (KIT L576P): retained their activity
- sensitivity of mutant to the inhibitors (Flt3 K663Q): remained equally sensitive
- inhibition (NLK): not inhibited
- inhibition (ERK1): not inhibited
- number of kinases outside of the set of 46 predicted kinases showing significant inhibition (STK36 and PRKD2) (panel of kinases (402)): two
- number of kinases out of 31 with more than 50% residual activity (panel of kinases (402)): 11
- sensitivity of mutant to the inhibitors (Flt3 N841L): remained equally sensitive
- inhibition (NIK): not inhibited
- remaining activity at 1 µM (Flt1; [3]): < 10%
- activity against dual mutation (KIT V559D, T670I): not active
- remaining activity at 1 µM (Flt3): < 10%
- remaining activity at 1 µM (PDGFRβ; [3]): < 10%
- remaining activity at 1 µM (TGFR2): < 10%
- inhibition (GSK3β): not inhibited
- activity against mutant (KIT V559D): retained their activity
- remaining activity at 1 µM (TAK1): < 10%

Compound: O=C1OCC/C=C\C(=O)[C@@H](O)[C@@H](O)[C@H](O)COc2cc(O)cc(O)c21 [1bgi]
- activity against mutant compared with wild type (Flt3 D835Y): more active than against the wild type
- activity against dual mutation (KIT V559D, V654A): not active
- activity against mutant (KIT D816V): retained their activity
- activity against mutant (KIT L576P): retained their activity
- sensitivity of mutant to the inhibitors (Flt3 K663Q): remained equally sensitive
- number of kinases outside of the set of 46 predicted kinases showing significant inhibition (STK36 and PRKD2) (panel of kinases (402)): two
- number of kinases out of 31 with more than 50% residual activity (panel of kinases (402)): 19
- sensitivity of mutant to the inhibitors (Flt3 N841L): remained equally sensitive
- remaining activity at 1 µM (MEK4): 1%
- activity compared to 1afh (Flt1; 1 μM): ten times less active
- activity against dual mutation (KIT V559D, T670I): not active
- activity compared to 1afh (PDGFRβ; 1 μM): ten times less active
- activity against mutant (KIT V559D): retained their activity

Compound: CCOc1cc2ncc(C#N)c(Nc3ccc(F)c(Cl)c3)c2cc1NC(=O)/C=C/CN(C)C [EKB-569]
- safety in phase I clinical trial [1]: safe

Compound: CCN(CC)CCNC(=O)c1c(C)[nH]c(/C=C2\C(=O)Nc3ccc(F)cc32)c1C [sunitinib, reference compound]
- animals having a high count of lung metastatic nodules [2]: 5
